We go through 17 compounds from patent US6933296B2, “Compounds effective as β2-adrenoreceptor agonists as well as PDE4-inhibitors” (Altana Pharma B.V., priority 2000, dated 2005).

Series [1] deals with PDE4. The series is described as follows: Inhibition of PDE4 activity (cytosol from human neutrophils, [3H]cAMP hydrolysis). It is filed as biochemical. As to conditions: 0.5 μM cAMP, Motapizone 1 μM, DMSO 0.5% for (some of) examples 1-19, 1% from example 20. The protocol:
Method for Measuring Inhibition of PDE4 Activity
PDE4 activity was determined as described by Thompson et al. (Adv Cycl Nucl Res 10: 69-92, 1979) with some modifications (Bauer and Schwabe, Naunyn-Schmiedeberg's Arch Pharmacol 311: 193-198, 1980). At a final assay volume of 200 μl (96well microtiter plates) the assay mixture contained 20 mM Tris-HCl (pH 7.4), 5 mM MgCl2, 0.5 μM cAMP, [^3H]cAMP (about 30,000 cpm/assay), the test compound and an aliquot of cytosol from human neutrophils which mainly contains PDE4 activity as described by Schudt et al. (Naunyn-Schmiedeberg's Arch Pharmacol 344: 682-690, 1991); the PDE3-specific inhibitor Motapizone (1 μM) was included to suppress PDE3 activity originating from contaminating platelets.
To minimize problems with the solubility of the compounds, starting from example 20 serial dilutions of the compounds were prepared directly in DMSO and further diluted 1:100 (v/v) in the assays to obtain now the final concentrations of the inhibitors at a DMSO concentration of 1% (v/v) which by itself only slightly affected PDE4 activity.
After preincubation for 5 min at 37° C., the reaction was started by the addition of substrate (cAMP) and the assays were incubated for further 15 min at 37° C. 50 μl of 0.2 N HCl was added to stop the reaction and the assays were left on ice for about 10 min. Following incubation with 25 μg 5′-nucleotidase (Crotalus atrox snake venom) for 10 min at 37° C., the assays were loaded on QAE Sephadex A-25 (1 ml bed volume). The columns were eluted with 2 ml of 30 mM ammonium formiate (pH 6.0) and the eluate was counted for radioactivity. Results were corrected for blank values (measured in the presence of denatured protein) which were below 5% of total radioactivity. […] The IC50-values for the compounds according to the invention for the inhibition of the PDE4 activity were determined from the concentration-inhibition curves by nonlinear-regression.

In series [2] the test system is human eosinophils. The series is described as follows: Inhibition of C5a-stimulated chemiluminescence in human eosinophils. In kind it is cell-based. Conditions: for IC30: Eosinophil, read-out: Inhibition of C5a-stimulated chemiluminescence [-logIC30 (mol/l)] (converted). The text has this:
c) Inhibition of C5a-stimulated Chemiluminescence in Human Eosinophils
Eosinophils were purified essentially as described in detail elsewhere (Hatzelmann A, Tenor H and Schudt C, Differential effects of non-selective and selective phosphodiesterase inhibitors on human eosinophil functions. Brit J Pharmacol 114: 821-831, 1995). Briefly, total granulocytes were first purified from blood (anticoagulated with 0.3% w/v sodium citrate) by dextran sedimentation, centrifugation on Ficoll Paque and hypotonic lysis of remaining red blood cells. For the further purification of the eosinophil fraction the magnetic cell separation (MACS) system from Miltenyi Biotec (Bergisch-Gladbach, Germany) was applied. Eosinophils were separated from neutrophils by negative selection using anti-CD16 microbeads in a two-step protocol using D- and BS-(formerly called B2-) separation columns. By this method human eosinophils with a purity of >99% and a viability of >97% were obtained.
The chemiluminescence (CL) assay was essentially performed as described (Hatzelmann et al., 1995). Briefly, measurements were performed in a “CL-buffer” (140 mM NaCl, 5 mM KCl, 1 mM MgCl2, 10 mM HEPES, pH 7.4) containing 1 mM CaCl2, 1 mg/ml glucose, 0.05% (w/v) BSA, 10 μM luminol and 4 μM microperoxidase (all values correspond to final concentrations in the assays) in a total volume of 0.5 ml at a cell concentration of 10^6 cells/ml. Aliquots (0.4 ml) of the cell suspension (containing luminol and microperoxidase) were preincubated for 5 min at 37° C. in the absence or presence of inhibitors (0.05 ml). Stock solutions of the inhibitors (10 mM) were prepared in DMSO and diluted 1:100 (v/v) in CL-buffer; subsequent dilutions were made in 1% DMSO/CL-buffer to achieve the final drug concentrations in the assays at a DMSO concentration of 0.1% (v/v) which by itself only weakly affected the CL response. […] After preincubation, the assays were transferred into a “Multi-biolumat LB 9505C” from Berthold (Wildbad, Germany) and stimulated by the addition of 0.05 ml C5a (dissolved in CL-buffer; 100 nM final concentration). CL was continuously recorded for 1 min (C5a) and the AUC (area under the curve) calculated. Inhibition of CL by the compounds under these conditions is given as −log IC30 (mol/l).

Setting [3] is: 100 nM C5a, 100 nM salbutamol included as additional cAMP trigger.

As a reminder, the melting point is the temperature of the solid-liquid transition.

In turn, `COc1ccc(C2=NN(C3CCN(C(=O)CCS(=O)(=O)CCNCC(O)c4cc(Cl)c(N)c(C#N)c4)CC3)C(=O)[C@@H]3CC=CC[C@H]23)cc1OC` (stereo partly drawn) [Compound 32, 2-Amino-3-chloro-5-{2-[2-(3-{4-[(4aS,8aR)-4-(3,4-dimethoxy-phenyl)-1-oxo-4a,5,8,8a-tetrahydro-1H-phthalazin-2-yl]-piperidin-1-yl}-3-oxo-propane-1-sulfonyl)-ethylamino]-1-hydroxy-ethyl}-benzonitrile] showed a melting point of 102 to 103 °C. This compound came in with an Inhibition of PDE4 activity [-logIC50] in series [1] of 11.4. The IC30 in series [2] (setting [3]) was 0.229 µM.

With `CC(C)(C)NCC(O)c1ccc(O)c(CO)c1` (stereo not drawn) [salbutamol, reference compound], the “effect on the CL response by itself” value in series [2] (100 nM final concentration, C5a-stimulated) is reported as “hardly affected the CL response”.

The compound `COc1ccc(C2=NN(c3ccc(OCCCCNCC(O)c4cc(Cl)c(N)c(Cl)c4)cc3)C(=O)[C@@H]3CC=CC[C@H]23)cc1OC.O=C(O)/C=C/C(=O)O` (stereo partly drawn) [Compound 21, (4aS,8aR)-2-(4-{4-[2-(4-Amino-3,5-dichlorophenyl)-2-hydroxy-ethylamino]-butoxyl}-phenyl)-4-(3,4-dimethoxy-phenyl)-4a,5,8,8a-tetrahydro-2H-phthalazin-1-one fumarate] showed a melting point of 126 to 127 °C. This compound also showed an Inhibition of PDE4 activity [-logIC50] in series [1] of 10. In addition, the IC30 in series [2] (setting [3]) is 0.302 µM.

`COc1ccc(C2=NN(CCNCC(O)c3cc(Cl)c(N)c(Cl)c3)C(=O)C3CC=CCC23)c2c1OC1(CCCC1)C2` (stereo not drawn) [Compound 8, (cis)-2-(2-[{2-(4-amino-3,5-dichlorophenyl)-2-hydroxyethyl}amino]-1-ethyl)-4-(2,3-dihydro-7-methoxybenzofuran-2-spiro-1′-cyclopentan-4-yl)-4a,5,8,8a-tetrahydro-2H-phthalazin-1-one] registered a melting point of 176 to 177 °C. The same compound yielded an Inhibition of PDE4 activity [-logIC50] in series [1] of 8.18. Further, the IC30 in series [2] (setting [3]) was 0.398 µM.

With `COc1ccc(C2=NN(Cc3ccc(OCCCCNCC(O)c4cc(Cl)c(N)c(Cl)c4)cc3)C(=O)[C@@H]3CC=CC[C@H]23)cc1OC.O=C(O)/C=C/C(=O)O` (stereo partly drawn) [Compound 22, (4aS,8aR)-2-(4-{4-[2-(4-Amino-3,5-dichloro-phenyl)-2-hydroxy-ethylamino]-butoxy}-benzyl)-4-(3,4-dimethoxy-phenyl)-4a,5,8,8a-tetrahydro-2H-phthalazin-1-one fumarate], the melting point is 119 to 120 °C. For the same compound, the Inhibition of PDE4 activity [-logIC50] in series [1] is 9.79. In addition, the IC30 in series [2] (setting [3]) is 0.2 µM.

As to `COc1ccc(C2=NN(C3CCN(C(=O)[C@H](C)NCC(O)c4cc(Cl)c(N)c(C#N)c4)CC3)C(=O)[C@@H]3CC=CC[C@H]23)cc1OC.Cl` (stereo partly drawn) [Compound 33, 2-Amino-3-chloro-5-[2-((S)-2-{4-[(4aS,8aR)-4-(3,4-dimethoxy-phenyl)-1-oxo-4a,5,8,8a-tetrahydro-1H-phthalazin-2-yl]-piperidin-1-yl}-1-methyl-2-oxo-ethylamino)-1-hydroxy-ethyl]-benzonitrile hydrochloride], the melting point lay within 160 to 161 °C. For the same compound, the Inhibition of PDE4 activity [-logIC50] in series [1] is 10.1. Also, in series [2] (setting [3]), the IC30 is 0.501 µM.

Turning to `COc1ccc(C2=NN(C3CCN(C(=O)[C@H](C)NCC(O)c4cc(N)c(N)c(Cl)c4)CC3)C(=O)[C@@H]3CC=CC[C@H]23)cc1OC.O=C(O)/C=C/C(=O)O` (stereo partly drawn), the melting point was in the range of 130 to 131 °C.

In the case of `COc1ccc(C2=NN(c3ccc(OCCCCNCC(O)c4ccc(O)c(CO)c4)cc3)C(=O)[C@@H]3CC=CC[C@H]23)cc1OC.O=C(O)/C=C/C(=O)O` (stereo partly drawn), the melting point is 126 to 127 °C.

`COc1ccc(C2=NN(C3CCN(CCCCCCNCC(O)c4cc(Cl)c(N)c(C#N)c4)CC3)C(=O)[C@@H]3CC=CC[C@H]23)cc1OC.O=C(O)/C=C/C(=O)O` (stereo partly drawn) displayed a melting point of 142 to 143 °C.

In turn, `COc1ccc(C2=NN(C3CCN(C(=S)NCCCCNCC(O)c4cc(Cl)c(N)c(Cl)c4)CC3)C(=O)[C@@H]3CC=CC[C@H]23)cc1OC` (stereo partly drawn) [Compound 25, 4-[(4aS,8aR)-4-(3,4-Dimethoxy-phenyl)-1-oxo-4a,5,8,8a-tetrahydro-1H-phthalazin-2-yl]-piperidine-1-carbothioic acid {4-[2-(4-amino-3,5-dichloro-phenyl)-2-hydroxy-ethylamino]-butyl}-amide] had a melting point of 139 to 144 °C. For the same compound, the Inhibition of PDE4 activity [-logIC50] in series [1] amounted to 10.6. In series [2] (setting [3]), the IC30 was 0.794 µM.

Turning to “(cis)-2-{4-(2-[{2-(4-amino-3,5-dichlorophenyl)-2-hydroxyethyl}amino]-1-ethyl}phenyl)-4-(3,4-dimethoxyphenyl)-4a,5,8,8a-tetrahydro-2H-phthalazin-1-one hemifumarate [Compound 5]”, in series [2] (setting [3]), the “Inhibition of C5a-stimulated chemiluminescence [-logIC30 (mol/l)]” value turned out to be 6.70 mol/l.

In turn, `CCOc1ccc(C2=NN(C3CCN(C(=O)CNCC(O)c4cc(Cl)c(N)c(Cl)c4)CC3)C(=O)[C@@H]3CC=CC[C@H]23)cc1OCC.O=C(O)/C=C/C(=O)O` (stereo partly drawn) displayed a melting point of 172 to 173 °C.

`COc1ccc(C2=NN(C3CCN(S(=O)(=O)CCNCC(O)c4cc(Cl)c(N)c(Cl)c4)CC3)C(=O)[C@@H]3CC=CC[C@H]23)cc1OC.O=C(O)/C=C/C(=O)O` (stereo partly drawn) [Compound 27, (4aS,8aR)-2-(1-{2-[2-(4-Amino-3,5-dichloro-phenyl)-2-hydroxy-ethylamino]-ethanesulfonyl}-piperidin-4yl)-4-(3,4-dimethoxy-phenyl)-4a,5,8,8a-tetrahydro-2H-phthalazin-1-one fumarate] came in with a melting point of 169 to 171 °C. This compound had an Inhibition of PDE4 activity [-logIC50] in series [1] of 11.2. The IC30 in series [2] (setting [3]) was 0.398 µM.

Consider `COc1ccc(C2=NN(C3CCN(S(=O)(=O)CCNCC(O)c4ccc(O)c(CO)c4)CC3)C(=O)[C@@H]3CC=CC[C@H]23)cc1OC` (stereo partly drawn) [Compound 29, (4aS,8aR)-4-(3,4-Dimethoxy-phenyl)-2-(1-{2-[2-hydroxy-2-(4-hydroxy-3-hydroxymethyl-phenyl)-ethylamino]-ethanesulfonyl}-piperidin-4-yl)-4a,5,8,8a-tetrahydro-2H-phthalazin-1-one], for which the melting point was in the range of 97 to 99 °C.

In the case of `COc1ccc(C2=NN(c3ccc(OCCNCC(O)c4cc(Cl)c(N)c(Cl)c4)cc3)C(=O)[C@@H]3CC=CC[C@H]23)cc1OC.O=C(O)C(=O)O` (stereo partly drawn), the melting point was in the range of 136 to 138 °C.

Compound `COc1ccc(C2=NN(C3CCN(C(=O)CCSCCNCC(O)c4cc(Cl)c(N)c(Cl)c4)CC3)C(=O)[C@@H]3CC=CC[C@H]23)cc1OC.Cl` (stereo partly drawn) [Compound 30, (4aS,8aR)-2-[1-(3-{2-[2-(4-Amino-3,5-dichloro-phenyl)-2-hydroxy-ethylamino]-ethylsulfanyl}-propanoyl)-piperidin-4-yl]-4-(3,4-dimethoxy-phenyl)-4a,5,8,8a-tetrahydro-2H-phthalazin-1-one hydrochloride] registered a melting point of 118 to 120 °C. Besides, the Inhibition of PDE4 activity [-logIC50] in series [1] was determined as 10.7. For the same compound, the IC30 in series [2] (setting [3]) is 0.2 µM.

Consider `COc1ccc(C2=NN(C3CCN(CCS(=O)(=O)CCNCC(O)c4cc(Cl)c(N)c(Cl)c4)CC3)C(=O)[C@@H]3CC=CC[C@H]23)cc1OC.O=C(O)/C=C/C(=O)O` (stereo partly drawn), for which the melting point is 137 to 138 °C.
